The values that follow are results of earlier work, collected in patent US20150056194A1, “MODIFIED GREEN TEA POLYPHENOLS AND METHODS THEREOF FOR TREATING LIVER DISEASE” (priority 2013, published 2015).

The conditions of data set [1]: animals receiving tea preparations in cancer prevention studies.
The next data set deals with influenza. Conditions: compared with EGCG.

As for `O=C(O[C@@H]1Cc2c(O)cc(O)cc2O[C@@H]1c1cc(O)c(O)c(O)c1)c1cc(O)c(O)c(O)c1` [EGCG, (−)-Epigallocatechin-3-gallate], in data set [1], the blood levels result is given as “lower than 0.5 μuM”. Consider EGCG-palmitate, for which the “anti-influenza activity, times more effective than EGCG” value in the data set on influenza is on record as 24 times.
